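Following 48 hours of exposure in 96-well plates, responses at five concentrations were used to interpolate endpoints linearly. TGI marks complete inhibition of growth.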
How the values were obtained:
Experiment in all cases: DTP human tumour cell line panel, 48 h
COLO 205 colon = test system: COLO 205 colon
CCRF-CEM leukemia = test system: CCRF-CEM leukemia
PC-3 prostate = test system: PC-3 prostate
SNB-75 CNS = test system: SNB-75 CNS
RXF 393 renal = test system: RXF 393 renal
NCI-H23 lung = test system: NCI-H23 lung
SN12C renal = test system: SN12C renal
KM12 colon = test system: KM12 colon
SK-OV-3 ovarian = test system: SK-OV-3 ovarian
U251 CNS = test system: U251 CNS
OVCAR-3 ovarian = test system: OVCAR-3 ovarian
UACC-62 melanoma = test system: UACC-62 melanoma
MDA-N = test system: MDA-N
MOLT-4 leukemia = test system: MOLT-4 leukemia
A549 NSCLC = test system: A549 NSCLC
HCC-2998 colon = test system: HCC-2998 colon
A498 renal = test system: A498 renal

Row | Structure (SMILES) | TGI (COLO 205 colon) [µM] | TGI (CCRF-CEM leukemia) [µM] | TGI (PC-3 prostate) [µM] | TGI (SNB-75 CNS) [µM] | TGI (RXF 393 renal) [µM] | TGI (NCI-H23 lung) [µM] | TGI (SN12C renal) [µM] | TGI (KM12 colon) [µM] | TGI (SK-OV-3 ovarian) [µM] | TGI (U251 CNS) [µM] | TGI (OVCAR-3 ovarian) [µM] | TGI (UACC-62 melanoma) [µM] | TGI (MDA-N) [µM] | TGI (MOLT-4 leukemia) [µM] | TGI (A549 NSCLC) [µM] | TGI (HCC-2998 colon) [µM] | TGI (A498 renal) [µM]
1 | O=[N+]([O-])c1cc(N=Nc2c(O)ccc3cc(S(=O)(=O)O)ccc23)c(O)c([N+](=O)[O-])c1 | > 100 | > 100 | > 100 | > 100 | > 100 | > 100 | > 100 | > 100 | > 100 | > 100 | > 100 | > 100 | > 100 | > 100 | > 100 | – | –
2 | c1ccc(Cn2c(-c3ccc(-c4ccccc4)cc3)cc3ccccc32)cc1 | > 100 | > 100 | > 100 | > 100 | – | > 100 | > 100 | > 100 | > 100 | > 100 | > 100 | > 100 | > 100 | > 100 | > 100 | > 100 | –
3 | COc1ccc2c(c1)C(OC)C1c3c(cc4c(c3-2)OCO4)CCN1C (centres undefined) | > 43.6 | – | 9.34 | 15.6 | 6.43 | 11.1 | 12.1 | 18.6 | 23.1 | 18.9 | 25.1 | 5.08 | 12 | > 51.7 | 9.87 | 14.3 | 4.96
4 | COc1ccc(-c2csc(Cc3nc4c(Br)cc(Br)cc4c(=O)n3-c3ccc(OC)cc3)n2)cc1 | > 100 | > 100 | > 100 | > 100 | > 100 | > 100 | – | > 100 | > 100 | > 100 | > 100 | > 100 | > 100 | > 100 | > 100 | > 100 | > 100
5 | CC(=O)C1C(=O)C(=O)N(c2ccc([N+](=O)[O-])cc2)C1=O (centres undefined) | > 100 | > 100 | > 100 | > 100 | > 100 | > 100 | > 100 | > 100 | > 100 | > 100 | > 100 | > 100 | > 100 | > 100 | > 100 | > 100 | –
6 | CCOC(=O)CSC1NC(C(=O)OC)CC1OC (centres undefined) | > 100 | > 100 | > 100 | > 100 | > 100 | > 100 | – | > 100 | > 100 | > 100 | > 100 | > 100 | > 100 | > 100 | > 100 | > 100 | > 100
7 | Nc1ncc(C=O)c(NCC2(CO)CCC2)n1 | > 100 | > 100 | > 100 | > 100 | > 100 | > 100 | > 100 | > 100 | – | > 100 | > 100 | 81.2 | > 100 | > 100 | > 100 | > 100 | > 100
8 | CN(C)C(=S)C(Cl)(c1ccccc1)c1ccccc1 | > 100 | > 100 | > 100 | > 100 | – | > 100 | > 100 | > 100 | > 100 | > 100 | > 100 | > 100 | > 100 | > 100 | > 100 | > 100 | > 100
9 | S=C(N/N=C/c1ccccn1)N1CC2CCC(CC2)C1 | – | – | 13 | 0.868 | 3.19 | 7.7 | 0.645 | 7.76 | 5.7 | 4.6 | 13.9 | 0.531 | 13.1 | – | 14.2 | 18.6 | 2.93
10 | O=c1oc2ccccc2c(O)c1C(c1ccc(-c2ccccc2)cc1)c1c(O)c2ccccc2oc1=O | > 100 | 93.8 | 56.4 | > 100 | – | 56.8 | 33.7 | 38.1 | – | > 100 | 58.7 | 39.5 | 36.1 | > 100 | – | 29 | > 100
11 | COC(=O)c1c(C)c2c(c(C)c1C(=O)OC)-c1c(C)ccc3ccc(C)c-2c13 | > 100 | > 100 | > 100 | > 100 | > 100 | – | > 100 | > 100 | > 100 | > 100 | > 100 | > 100 | > 100 | > 100 | > 100 | – | > 100

— PubChem BioAssay (NCI)
